According to patent publication US20220008392A1, “METHODS OF TREATING CANCER” (ASTRAZENECA AB, priority 2018, published 2022):

What was measured:
[1] = test system: lymphoma cell lines; assay: 6-hour caspase activation assay (Caspase-Glo 3/7) in 33 lymphoma cell line panel; format: cell-based; settings: for Emax: 6 hour compound incubation, cell lines highlighted in FIG. 1B, read-out: caspase maximum effect
Description: Method: 33 diffuse large B-cell (DLBCL) and Mantle cell (MCL) lymphoma cell lines were seeded onto 384 well plates pre-dosed with 10-point, ½ log titrations of AZD4573 or AZD5991, and incubated for 6 hours. Following the incubation cleaved caspase was measured using Caspase-Glo 3/7 (Promega) following the manufacturer's protocol. Data was analyzed using GeneData Screener and Spotfire.
Method: Cell lysates from 33 lymphoma cell lines were generated in parallel to evaluate protein expression of pro-survival Bcl2 family members. Cell lysates were normalized for protein concentration using the BCA Protein Assay Kit, and western blots were run according to standard protocols. A positive cell line control for expression of Bfl-1, TMD8, was utilized for normalization to other cell lines in the panel. AZD4573 and AZD5991 respective median and geomean caspase EC50's were calculated from cell lines clustered based on high and low Bfl-1 expression, respectively.

[2] = test system: pSer2-RNAP2; assay: Western blot of proximal CDK9 biomarker in OCILY10 cells treated with AZD4573; format: cell-based
Description: (§1) Method: The ABC-DLBCL cell line OCILY10 was treated for 6 h with a 9 pt, ½ log dose response of AZD4573 and cells were harvested for protein lysates. These cells were also treated with AZD4573 at 100 nM for varying timepoints out to 6 hours. At each timepoint (0, 0.5, 1, 2, 4, 6 hours) cells were harvested for either mRNA isolation, or protein lysates, respectively. mRNA was converted to cDNA and PCR sequence amplification was performed with Mcl1 and Bcl2a1 primers following standard protocols. Protein lysates were normalized for protein concentration using the BCA Protein Assay Kit, and run for western blots according to standard protocols. To ensure expected target engagement was achieved, the blots were probed for the proximal biomarker for CDK9 (pSer2-RNAPolII), along with Mcl-1 and Bfl-1. To gauge the time to induction of apoptosis, cleaved caspase-3 was assessed. A loading control (vinculin) was also utilized for normalization.

[3] = test system: OCILY10 xenograft; assay: OCILY10 ABC-DLBCL xenograft efficacy; format: in vivo, C.B.-17 SCID female mice
Description: (§2) Method: AZD4573 was formulated in dimethylacetamide (DMA)/polyethylene glycol 400 (PEG 400)/1% w/v Tween 80 solution 2/30/68 and dosed at 15 mg/kg, intraperitoneally (ip), BID with a 2 hour split on days 1 and 2 with a 5 day dose holiday.
(§3) AZD5991 was formulated for intravenous use in 30% HPBCD (hydroxy-propyl-beta-cyclodextrin) in water-for-injection adjusted to pH 9.0-9.5 up to a concentration of 20 mg/mL (based on parent form). AZD5991 was dosed at 60 mg/kg by tail-vain intravenous injection once weekly.
(§4) 5×10^6 OCILy10 tumor cells or 10×10^6 TMD8 tumor cells were injected subcutaneously in the right flank of C.B.-17 SCID female mice in a volume of 0.1 mL containing 50% matrigel.
(§5) Tumor volumes (measured by caliper), animal body weight, and tumor condition were recorded twice weekly for the duration of the studies. The tumor volume was calculated using the formula: length (mm)×width (mm)^2×0.52. For efficacy studies, growth inhibition from the start of treatment was assessed by comparison of the differences in tumor volume between control and treated groups. Dosing began when mean tumor size reached approximately 150-180 mm^3. CR=complete response.

[4] = test system: OCILY10 cells; assay: Cleaved caspase-3 induction over time in OCILY10 cells; format: cell-based; settings: 100 nM AZD4573
Description: as §1

[5] = test system: TMD8 xenograft; assay: TMD8 ABC-DLBCL xenograft efficacy; format: in vivo, C.B.-17 SCID female mice
Description: as §2, §3, §4, §5

[6] = test system: Mcl-1 and Bfl-1; assay: Mcl-1 and Bfl-1 mRNA (PCR) and Bcl2 family protein (western blot) modulation in OCILY10 cells; format: cell-based
Description: as §1

[7] = test system: OCILY10 and TMD8 cell lines; assay: Caspase-Glo 3/7 activation after Bfl-1 siRNA knockdown; format: cell-based; settings: 6 hours
Description: Method: OCILY10 and TMD8 cells were grown in logarithmic phase and plated in serum-free siRNA delivery media at 1×10^6 cells/mL in 12-well plates (Dharmacon B-005000). An siRNA SMARTpool targeting Bfl-1 or a scrambled negative control (NTC) were added to respective wells for 24 hours at 0.1 or 0.5 μM (Dharmacon Bcl2a1-597, NTC-D-001910-01). 2 mL of cell culture media was added to all transfected wells and transferred into a 6-well plate for an additional 48 hours. Transfected cells were collected to assess Bfl-1 protein knockdown and cleaved caspase-3 by western blot. Transfected cells were also seeded onto 384 well plates pre-dosed with an 8-point titration of AZD4573 or AZD5991 and incubated for 6 hours. The plates were measured for activation of cleaved caspase using Caspase-Glo 3/7 (Promega) following the manufacturer's protocol.

[8] = 15 mg/kg ip BID with 2 hour split on days 1 and 2, 5 day dose holiday

Row | SMILES | Emax [1] | geometric mean caspase EC50 difference between AZD5991 and AZD4573 ([1]; Bfl-1 expressing cell lines (n=8)) | geometric mean caspase EC50 difference between AZD5991 and AZD4573 ([1]; cell lines with no expression of Bfl-1 (n=25)) | Expression of pSer2-RNAP2 inhibited ([2]; 100 nM AZD4573, 30 minutes after dosing) | pSer2-RNAP2 inhibition ([2]; 6 h, serial dilutions of AZD4573) | TGI [3, 8] | anti-tumor response ([3]; OCILY10 xenograft, AZD4573 treatment) | time at which cleaved caspase was detected [4] | TGI [5, 8] | anti-tumor response ([5]; TMD8 xenograft, AZD4573 treatment) | time by which Mcl1 and Bfl1 mRNA expression were reduced to equivalent levels ([6]; 100 nM AZD4573) | time of reductions in Mcl-1 and Bfl-1 protein ([6]; 100 nM AZD4573) | expression of longer lived proteins Bcl2, Bcl-xL and Bcl-W ([6]; after 6 h treatment with AZD4573) | reductions in Mcl-1 and Bfl-1 protein ([6]; at concentrations that inhibited pSer2-RNAP2) | maximum level of apoptosis (cleaved caspase) ([7]; OCILY10 and TMD8, Bfl-1 siRNA knockdown cells) | maximum level of apoptosis (cleaved caspase) ([7]; average of OCILY10 and TMD8, without Bfl-1 knockdown)
1 | CC(=O)N[C@@H]1CCC[C@H](C(=O)Nc2cc(-c3cnn4c3CC(C)(C)C4)c(Cl)cn2)C1 [AZD4573, (1S,3R)-3-acetamido-N-(5-chloro-4-(5,5-dimethyl-5,6-dihydro-4H-pyrrolo [1,2-b]pyrazol-3-yl)pyridin-2-yl)cyclohexanecarboxamide] | > 50% | 22 fold | 4 fold | > 80% | inhibited in a dose-dependent manner | 198% | complete tumor regressions | 6 h | 184% | complete tumor regressions | ≤ 2 h | 4 h | relatively unchanged | Equipotent reductions |  | 
2 | Cc1c2c(nn1C)CSCc1cc(n(C)n1)CSc1cc(c3ccccc3c1)OCCCc1c(C(=O)O)n(C)c3c-2c(Cl)ccc13 (atropisomer, axis not shown) [AZD5991] | < 50% |  |  |  |  |  |  |  |  |  |  |  |  |  | over 90% | 45%
